Source: ChEMBL document CHEMBL4837185, “Emerimicins V-X, 15-Residue Peptaibols Discovered from an Acremonium sp. through Integrated Genomic and Chemical Approaches” (J Nat Prod, 2021)
In brackets after ≈: the same amount, converted by molar mass.

How the values were obtained:
[1] = Toxicity in zebra fish embryo assessed as survival rate at 100 ug/ml incubated for 48 hrs; set-up: species or system Danio rerio; details: zebrafish, zebrafish embryos, at 100 µg/mL
Enterococcus faecalis [2] = experiment: Antibacterial activity against Enterococcus faecalis ATCC 19433 assessed as inhibition of bacterial growth measured after 16 to 20 hrs by CLSI broth microdilution method; assay type: functional; details: time 16-20 hrs
Staphylococcus aureus = experiment: Antibacterial activity against methicillin-resistant Staphylococcus aureus ATCC 1556 assessed as inhibition of bacterial growth measured after 16 to 20 hrs by CLSI broth microdilution method; assay type: functional; details: time 16-20 hrs
Enterococcus faecalis [3] = experiment: Antibacterial activity against vancomycin-resistant Enterococcus faecalis ATCC 51299 assessed as inhibition of bacterial growth measured after 16 to 20 hrs by CLSI broth microdilution method; assay type: functional; details: time 16-20 hrs
Pseudomonas aeruginosa = experiment: Antibacterial activity against Pseudomonas aeruginosa ATCC 27853 assessed as inhibition of bacterial growth measured after 16 to 20 hrs by CLSI broth microdilution method; assay type: functional; details: time 16-20 hrs
[4] = Toxicity in zebra fish embryo assessed as mortality at 33 ug/ml incubated for 48 hrs; set-up: species or system Danio rerio; details: zebrafish, dose 33 µg/ml
[5] = Toxicity in zebra fish embryo assessed as mortality at 100 ug/ml incubated for 48 hrs; set-up: species or system Danio rerio; details: zebrafish, dose 100 µg/ml

Row | Molecule | survival at 48 h, 100 ug/ml [1] [%] | MIC (Enterococcus faecalis [2]) [µg/mL] | MIC (Staphylococcus aureus) [µg/mL] | MIC (Enterococcus faecalis [3]) [µg/mL] | MIC (Pseudomonas aeruginosa) [µg/mL] | Activity [4] | Activity [5]
1 | CC[C@@](C)(NC(=O)[C@H](CC(C)C)NC(=O)CNC(=O)[C@@](C)(CC)NC(=O)C(C)(C)NC(=O)C(C)(C)NC(=O)C(C)(C)NC(=O)[C@@H](NC(C)=O)C(C)C)C(=O)NC(C)(C)C(=O)N1C[C@H](O)C[C@H]1C(=O)N[C@@H](CCC(N)=O)C(=O)N[C@](C)(CC)C(=O)N1C[C@H](O)C[C@H]1C(=O)NC(C)(C)C(=O)N[C@H](CO)Cc1ccccc1 | 75 | > 100 | > 100 | > 100 | > 100 | – | –
2 | CC[C@@](C)(NC(=O)[C@H](CC(C)C)NC(=O)CNC(=O)C(C)(C)NC(=O)C(C)(C)NC(=O)C(C)(C)NC(=O)C(C)(C)NC(=O)[C@H](Cc1ccccc1)NC(C)=O)C(=O)NC(C)(C)C(=O)N1C[C@H](O)C[C@H]1C(=O)N[C@@H](CCC(N)=O)C(=O)N[C@](C)(CC)C(=O)N1C[C@H](O)C[C@H]1C(=O)NC(C)(C)C(=O)N[C@H](CO)Cc1ccccc1 | – | > 100 | 64 (≈ 40.7 µM) | > 100 | > 100 | Toxic | –
3 | CC[C@@](C)(NC(=O)[C@H](CC(C)C)NC(=O)CNC(=O)C(C)(C)NC(=O)C(C)(C)NC(=O)C(C)(C)NC(=O)C(C)(C)NC(=O)[C@@H](NC(C)=O)C(C)C)C(=O)NC(C)(C)C(=O)N1C[C@H](O)C[C@H]1C(=O)N[C@@H](CCC(N)=O)C(=O)N[C@](C)(CC)C(=O)N1C[C@H](O)C[C@H]1C(=O)NC(C)(C)C(=O)N[C@H](CO)Cc1ccccc1 | 70 | > 100 | > 100 | > 100 | > 100 | – | –
4 | CC[C@@](C)(NC(=O)[C@H](CC(C)C)NC(=O)CNC(=O)C(C)(C)NC(=O)C(C)(C)NC(=O)C(C)(C)NC(=O)C(C)(C)NC(=O)[C@H](CC(C)C)NC(C)=O)C(=O)NC(C)(C)C(=O)N1C[C@H](O)C[C@H]1C(=O)N[C@@H](CCC(N)=O)C(=O)N[C@](C)(CC)C(=O)N1C[C@H](O)C[C@H]1C(=O)NC(C)(C)C(=O)N[C@H](CO)Cc1ccccc1 | – | > 100 | > 100 | > 100 | > 100 | – | Toxic
5 | CC[C@@](C)(NC(=O)[C@H](CC(C)C)NC(=O)CNC(=O)[C@@](C)(CC)NC(=O)C(C)(C)NC(=O)C(C)(C)NC(=O)C(C)(C)NC(=O)[C@H](Cc1ccccc1)NC(C)=O)C(=O)NC(C)(C)C(=O)N1C[C@H](O)C[C@H]1C(=O)N[C@@H](CCC(N)=O)C(=O)N[C@](C)(CC)C(=O)N1C[C@H](O)C[C@H]1C(=O)NC(C)(C)C(=O)N[C@H](CO)Cc1ccccc1 | – | 64 (≈ 40.3 µM) | 32 (≈ 20.2 µM) | 64 (≈ 40.3 µM) | > 100 | Toxic | –
6 | CC(=O)O[C@H]1C[C@@]2(C)[C@@H](CC[C@H]3[C@@]4(C)C=CC(=O)[C@@H](C)[C@@H]4[C@H](OC(C)=O)C(=O)[C@@]32C)/C1=C(\CCC=C(C)C)C(=O)O [HELVOLIC ACID] | – | 16 (≈ 28.1 µM) | 4 (≈ 7.03 µM) | 8 (≈ 14.1 µM) | > 100 | – | –
7 | CC[C@@](C)(NC(=O)[C@H](CC(C)C)NC(=O)CNC(=O)[C@@](C)(CC)NC(=O)C(C)(C)NC(=O)C(C)(C)NC(=O)C(C)(C)NC(=O)[C@H](CC(C)C)NC(C)=O)C(=O)NC(C)(C)C(=O)N1C[C@H](O)C[C@H]1C(=O)N[C@@H](CCC(N)=O)C(=O)N[C@](C)(CC)C(=O)N1C[C@H](O)C[C@H]1C(=O)NC(C)(C)C(=O)N[C@H](CO)Cc1ccccc1 | – | > 100 | > 100 | > 100 | > 100 | – | Toxic
8 | GENTAMICIN | – | 8 | 4 | 4 | 2 | – | –
